A short description of series [1]: Metabolic stability in human liver microsomes. The class given is in vitro ADME. As to conditions: for half-life at 2 μM: human liver microsomes 0.5 mg/mL, test compound 2 μM, sampling 0-60 min, read-out: Half life t1/2 (min) in human liver microsomes; for metabolic stability in the liver microsomes compared with non-deuterated control defactinib: human liver microsomes, result in words. On the procedure: (§1) Step 1. The mother solution was prepared according to the component ratio in Table 1 below:
(§2) Step 2: Two experiments were carried out as follows:
(§3) A) Adding reduced coenzyme II (NADPH): 20 mg/mL liver microsomes (10 μL) and 10 mM NADPH (40 μL) were added into the incubation experiment. The final concentrations of liver microsomes and NADPH were 0.5 mg/mL and 1 mM, respectively.
(§4) B) Without NADPH: 20 mg/mL liver microsomes (10 μL) and high pure water (40 μL) were added into the incubation experiment. The final concentration of liver microsomes was 0.5 mg/mL.
(§5) Step 3: The reaction began after adding 200 μM positive control (4 μL) or test compound. The positive control was verapamil in this experiment. The final concentration of the test compound was 2 μM.
(§6) Step 4: At the time points 0 min, 15 min, 30 min, 45 min, and 60 min, 50 μL solution was sampled from each reaction solution. Acetonitrile (4× volumes of reaction solution) and IS (100 nM alprazolam, 200 nM labetalol, 200 nM caffeine, and 2 μM ketoprofen) were added to the reaction solution. The sample was centrifuged at 3220 g gravity for 40 min. 100 μL high pure water was added into 100 μL supernatant and analyzed by LC-MS/MS.
(§7) Step 5: Data analysis: the peak area was determined from the extracted ion chromatogram. The slope value k was determined by linear regression of the natural logarithm obtained from the curve between the residual percentage of parent drug and the incubation time.
(§8) In vitro half-life (In vitro t1/2) was determined by the slope value: in vitro t1/2=−([…]/k In vitro intrinsic clearance (in vitro CLint, in […]) was converted from in vitro half-life t1/2 (min) using the following equation (mean value of repeated determinations): […]
(§9) Scale up intrinsic clearance (Scale up CLint, in mL/min/kg) was converted from in vitro half-life t1/2 (min) using the following equation (mean value of repeated determinations): […]
In general terms: Microsomes from liver hold many membrane-bound enzymes, among them those of drug oxidation.

Series [2] can be described thus: Metabolic stability in mouse liver microsomes. The format is in vitro ADME. The conditions noted are these: for half-life at 2 μM: mouse liver microsomes 0.5 mg/mL, test compound 2 μM, sampling 0-60 min, read-out: Half life t1/2 (min) in mouse liver microsomes; for metabolic stability in the liver microsomes compared with non-deuterated control defactinib: mouse liver microsomes, result in words. Here is the method:
as §1, §2, §3, §4, §5, §6, §7, §8, §9

Series [3] is described as follows: Metabolic stability in rat liver microsomes. The conditions noted are these: for half-life at 2 μM: rat liver microsomes 0.5 mg/mL, test compound 2 μM, sampling 0-60 min, read-out: Half life t1/2 (min) in rat liver microsomes; for metabolic stability in the liver microsomes compared with non-deuterated control defactinib: rat liver microsomes, result in words. The format is in vitro ADME. On the procedure:
as §1, §2, §3, §4, §5, §6, §7, §8, §9

Series [4] in a line: Pharmacokinetic experiment in rats (PO, 10 mpk). The format is in vivo. The conditions noted are these: Sprague-Dawley (SD), rat, 10 mg/kg, male SD rats, PO by gavage, plasma; for AUC: read-out: Exposure dose AUC; for half-life: read-out: Half life t1/2 (converted); for Tmax: read-out: Peak hours tmax; for Cmax: read-out: Peak plasma concentration Cmax(ng/mL); for MRT inf: read-out: Retention time MRTinf. On the procedure:
Appropriate amount of drug (equivalent to 10 mg of the original drug) was accurately weighed, to which was first added 0.25 ml DMA to dissolve drug, and 0.5% CMC-Na was slowly added to 5 ml, then mixed well with ultrasonic and vortex. 0.2 ml final solution prepared was taken out and stored at −20° C. for concentration determination. Three healthy adult male SD rats (180-250 g) received drugs at 5 ml/kg by gavage after fasting overnight (free drinking water); 0.1 ml blood was collected from retroorbital venous plexus before administration and 0.5, 1, 2, 4, 6, 8, 12 and 24 h after administration, and plasma was separated by centrifugation at 4° C. for 5 min and stored at −20° C. for use. Then, LC/MS/MS method was used to determine the concentration of compounds in plasma.

A word on the AUC: it is the area under the concentration-time curve, a measure of exposure. The Tmax is the time at which the peak concentration occurs.

Take `[2H]C([2H])([2H])NC(=O)c1ccc(Nc2ncc(C(F)(F)F)c(NCc3nccnc3N(C)S(C)(=O)=O)n2)cc1` [Compound 1, N-(trideuteromethyl)-4-((4-(((3-(N-methylmethylsulfonyl)pyrazin-2-yl)methyl)amino)-5-(trifluoromethyl)pyrimidin-2-yl)amino)benzamide]: in series [1], the half-life at 2 μM stood at 894 min and the “metabolic stability in the liver microsomes compared with non-deuterated control defactinib” value is “significantly improved”. In series [2], the half-life at 2 μM was found to be 87 min and the “metabolic stability in the liver microsomes compared with non-deuterated control defactinib” value is “significantly improved”. Also, in series [3], the half-life at 2 μM came to 151 min and the “metabolic stability in the liver microsomes compared with non-deuterated control defactinib” value is given as “significantly improved”. In series [4], the AUC came to 2840 ng·h/mL, the half-life is 1.74 h, the Tmax was found to be 0.67 h and the Cmax came to 1220 ng/mL. Also, the MRT inf in series [4] was determined as 2.03 h.

In the case of `[2H]C([2H])([2H])N(c1nccnc1CNc1nc(Nc2ccc(C(=O)NC)cc2)ncc1C(F)(F)F)S(C)(=O)=O` [Compound 2, N-methyl-4-((4-(((3-(N-deuteromethylmethanesulfonamido)pyrazin-2-yl)methyl)amino)-5-(trifluoromethyl)pyrimidin-2-yl)amino)benzamide], the half-life at 2 μM in series [1] turned out to be 100 min; in series [2], 70 min; in series [3], 47 min. Further, the “metabolic stability in the liver microsomes compared with non-deuterated control defactinib” value in series [1] and in series [3] was “slightly worse” in each case.

Turning to `[2H]C([2H])([2H])NC(=O)c1ccc(Nc2ncc(C(F)(F)F)c(NCc3nccnc3N(C([2H])([2H])[2H])S(C)(=O)=O)n2)cc1` [Compound 3, N-(trideuteromethyl)-4-((4-(((3-(N-deuteromethylmethanesulfonamido)pyrazin-2-yl)methyl)amino)-5-(trifluoromethyl)pyrimidin-2-yl)amino)benzamide], in series [1], the half-life at 2 μM came out at 781 min and the “metabolic stability in the liver microsomes compared with non-deuterated control defactinib” value is reported as “significantly improved”. In series [2], the half-life at 2 μM was 406 min and the “metabolic stability in the liver microsomes compared with non-deuterated control defactinib” value is “significantly improved”. Besides, in series [3], the half-life at 2 μM stood at 370 min and the “metabolic stability in the liver microsomes compared with non-deuterated control defactinib” value is reported as “significantly improved”. In addition, in series [4], the area under the curve (AUC) came to 3740 ng·h/mL, the half-life is 2.46 h, the Tmax was determined as 1.67 h and the Cmax is 971 ng/mL. The MRT inf in series [4] was found to be 3.35 h.

Take `CNC(=O)c1ccc(Nc2ncc(C(F)(F)F)c(NCc3nccnc3N(C)S(C)(=O)=O)n2)cc1` [Defactinib, N-methyl-4-((4-(((3-(N-methylmethylsulfonyl)pyrazin-2-yl)methyl)amino)-5-(trifluoromethyl)pyrimidin-2-yl)amino)benzamide]: in series [1], the half-life at 2 μM is 260 min. Besides, the half-life at 2 μM in series [2] came to 63 min. In addition, in series [3], the half-life at 2 μM was determined as 94 min. For the same compound, in series [4], the AUC was 1650 ng·h/mL, the half-life is 1.46 h, the Tmax was found to be 0.67 h and the Cmax is 643 ng/mL. In addition, in series [4], the MRT inf amounted to 2.4 h.

The record behind these values is US11891379B2, “Deuterated Defactinib compound and use thereof” (HINOVA PHARMACEUTICALS INC., priority 2018, dated 2024).
